# Paper PMC5428509, “Irreversible inhibition of BTK kinase by a novel highly selective inhibitor CHMFL-BTK-11 suppresses inflammatory response in rheumatoid arthritis model” (Scientific Reports, 2017)
# Columns and labels:
# Experiment in all cases: biochemical
# Set-up in all cases: KinomeScan competition binding panel (DiscoveRx), percent of control at 1 uM
# Conditions in all cases: read-out: Percent Control
# EPHA8 = EPHA8 (Homo sapiens, UniProt P29322)
# Summary of the method: (§1)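 KinomeScan technology used to profile binding across a panel of 456 kinases and mutants.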
# MYLK4 = MYLK4 (Homo sapiens, UniProt Q86YV6)
# Summary of the method: as §1
# ALK = ALK (Homo sapiens, UniProt Q9UM73)
# Summary of the method: as §1
# ARK5 = molecular target: T1, ARK5 (Homo sapiens, UniProt O60285)
# T1 construct: gene NUAK1
# T1 sequence (O60285 whole entry): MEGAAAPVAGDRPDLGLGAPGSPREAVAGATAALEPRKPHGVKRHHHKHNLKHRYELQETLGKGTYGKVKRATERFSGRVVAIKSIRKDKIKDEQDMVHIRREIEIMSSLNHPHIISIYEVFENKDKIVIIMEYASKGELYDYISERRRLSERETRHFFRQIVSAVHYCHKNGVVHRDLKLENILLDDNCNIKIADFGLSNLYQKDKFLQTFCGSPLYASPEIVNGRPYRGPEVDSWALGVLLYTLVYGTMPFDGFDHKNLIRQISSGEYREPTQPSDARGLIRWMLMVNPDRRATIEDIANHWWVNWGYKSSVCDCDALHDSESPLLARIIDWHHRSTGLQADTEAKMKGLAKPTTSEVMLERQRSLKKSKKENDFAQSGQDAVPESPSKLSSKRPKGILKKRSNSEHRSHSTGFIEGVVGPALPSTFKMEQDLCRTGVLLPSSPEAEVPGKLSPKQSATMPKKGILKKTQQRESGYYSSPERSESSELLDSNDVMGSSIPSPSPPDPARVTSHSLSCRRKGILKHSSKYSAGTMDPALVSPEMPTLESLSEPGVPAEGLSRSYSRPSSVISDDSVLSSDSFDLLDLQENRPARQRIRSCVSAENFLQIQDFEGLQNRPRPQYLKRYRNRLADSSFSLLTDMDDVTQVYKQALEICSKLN
# Summary of the method: as §1
# CDK4-cyclinD1 = molecular target: T2, CDK4-cyclinD1 (Homo sapiens, UniProt P11802)
# T2 construct: cyclinD1
# T2 sequence (P11802 whole entry): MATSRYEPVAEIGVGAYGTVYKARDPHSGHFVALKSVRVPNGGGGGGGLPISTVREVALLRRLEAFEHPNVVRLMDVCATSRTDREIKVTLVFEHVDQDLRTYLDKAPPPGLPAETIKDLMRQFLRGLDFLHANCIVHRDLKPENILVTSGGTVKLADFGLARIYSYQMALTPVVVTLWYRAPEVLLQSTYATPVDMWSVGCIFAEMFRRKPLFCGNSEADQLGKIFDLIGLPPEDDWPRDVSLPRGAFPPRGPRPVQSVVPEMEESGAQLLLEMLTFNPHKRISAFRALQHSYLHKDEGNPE
# T2 sequence (P24385 whole entry partner): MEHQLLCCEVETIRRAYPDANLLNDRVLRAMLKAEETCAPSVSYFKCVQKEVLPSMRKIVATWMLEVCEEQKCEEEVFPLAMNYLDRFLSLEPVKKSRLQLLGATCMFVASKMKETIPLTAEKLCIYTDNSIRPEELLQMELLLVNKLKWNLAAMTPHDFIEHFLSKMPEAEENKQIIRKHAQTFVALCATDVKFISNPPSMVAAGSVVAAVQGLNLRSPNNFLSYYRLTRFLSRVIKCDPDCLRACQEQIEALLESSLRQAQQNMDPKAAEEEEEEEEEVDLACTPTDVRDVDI
# Summary of the method: as §1
# AMPK-alpha2 = molecular target: T3, AMPK-alpha2 (Homo sapiens, UniProt P54646)
# T3 construct: gene PRKAA2
# Summary of the method: as §1
# PYK2 = molecular target: T4, PYK2 (Homo sapiens, UniProt Q14289)
# T4 construct: gene PTK2B
# T4 sequence (Q14289 whole entry): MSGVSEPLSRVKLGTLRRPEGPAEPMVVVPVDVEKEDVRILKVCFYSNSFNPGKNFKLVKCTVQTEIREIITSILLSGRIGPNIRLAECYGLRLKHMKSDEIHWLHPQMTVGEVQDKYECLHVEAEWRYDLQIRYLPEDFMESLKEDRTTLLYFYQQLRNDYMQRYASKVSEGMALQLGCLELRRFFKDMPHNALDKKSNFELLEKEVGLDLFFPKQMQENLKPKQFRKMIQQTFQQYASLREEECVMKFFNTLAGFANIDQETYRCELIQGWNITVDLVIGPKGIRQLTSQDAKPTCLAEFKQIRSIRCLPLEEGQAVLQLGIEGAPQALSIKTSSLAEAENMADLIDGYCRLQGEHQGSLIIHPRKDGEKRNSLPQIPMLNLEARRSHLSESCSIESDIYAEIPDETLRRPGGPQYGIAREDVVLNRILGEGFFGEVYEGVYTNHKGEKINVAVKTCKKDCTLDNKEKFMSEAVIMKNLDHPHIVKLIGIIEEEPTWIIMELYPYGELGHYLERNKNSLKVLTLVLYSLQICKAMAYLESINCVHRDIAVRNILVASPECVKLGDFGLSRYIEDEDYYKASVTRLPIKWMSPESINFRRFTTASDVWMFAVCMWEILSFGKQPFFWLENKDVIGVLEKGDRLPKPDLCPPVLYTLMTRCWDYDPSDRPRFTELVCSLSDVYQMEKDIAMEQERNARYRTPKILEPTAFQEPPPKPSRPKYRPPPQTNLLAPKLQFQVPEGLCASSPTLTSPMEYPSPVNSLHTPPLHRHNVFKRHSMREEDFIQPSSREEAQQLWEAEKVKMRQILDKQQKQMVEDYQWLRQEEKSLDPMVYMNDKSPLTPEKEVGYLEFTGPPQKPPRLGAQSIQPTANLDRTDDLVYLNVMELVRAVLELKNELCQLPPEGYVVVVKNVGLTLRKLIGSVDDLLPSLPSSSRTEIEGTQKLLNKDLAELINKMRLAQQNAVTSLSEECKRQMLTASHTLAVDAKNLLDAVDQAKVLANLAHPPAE
# Summary of the method: as §1
# MERTK = MERTK (Homo sapiens, UniProt Q12866)
# Summary of the method: as §1
# ACVR1 = ACVR1 (Homo sapiens, UniProt Q04771)
# Summary of the method: as §1
# OSR1 = molecular target: T5, OSR1 (Homo sapiens, UniProt O95747)
# T5 construct: gene OXSR1
# Summary of the method: as §1
# [1] = molecular target: T6, RSK4(Kin.Dom.2-C-terminal) (Homo sapiens, UniProt Q9UK32)
# T6 construct: gene RPS6KA6; Kin.Dom.2-C-terminal
# T6 sequence (Q9UK32 whole entry): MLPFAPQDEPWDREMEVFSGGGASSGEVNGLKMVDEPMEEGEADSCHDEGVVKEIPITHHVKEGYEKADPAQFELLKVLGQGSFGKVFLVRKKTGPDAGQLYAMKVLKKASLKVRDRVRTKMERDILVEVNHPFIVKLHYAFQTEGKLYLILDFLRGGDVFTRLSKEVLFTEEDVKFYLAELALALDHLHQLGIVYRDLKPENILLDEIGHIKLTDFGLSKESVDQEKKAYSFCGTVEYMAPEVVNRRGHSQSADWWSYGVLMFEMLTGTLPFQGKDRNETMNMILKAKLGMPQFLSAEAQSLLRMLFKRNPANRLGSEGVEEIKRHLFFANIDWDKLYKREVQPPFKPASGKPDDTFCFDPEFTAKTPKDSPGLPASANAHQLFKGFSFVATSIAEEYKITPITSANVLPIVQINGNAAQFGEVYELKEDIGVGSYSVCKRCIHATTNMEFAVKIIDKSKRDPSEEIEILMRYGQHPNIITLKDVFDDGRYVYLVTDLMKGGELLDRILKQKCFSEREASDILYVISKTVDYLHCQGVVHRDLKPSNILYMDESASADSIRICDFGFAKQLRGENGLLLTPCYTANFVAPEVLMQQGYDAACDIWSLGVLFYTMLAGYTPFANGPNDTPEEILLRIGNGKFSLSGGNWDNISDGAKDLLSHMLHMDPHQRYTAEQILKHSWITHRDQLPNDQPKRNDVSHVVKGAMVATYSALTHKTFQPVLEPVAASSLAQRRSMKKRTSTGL
# Summary of the method: as §1
# MRCKA = molecular target: T7, MRCKA (Homo sapiens, UniProt Q5VT25)
# T7 construct: gene CDC42BPA
# Summary of the method: as §1
# GSK3B = GSK3B (Homo sapiens, UniProt P49841)
# GSK3B, sequence (P49841 whole entry): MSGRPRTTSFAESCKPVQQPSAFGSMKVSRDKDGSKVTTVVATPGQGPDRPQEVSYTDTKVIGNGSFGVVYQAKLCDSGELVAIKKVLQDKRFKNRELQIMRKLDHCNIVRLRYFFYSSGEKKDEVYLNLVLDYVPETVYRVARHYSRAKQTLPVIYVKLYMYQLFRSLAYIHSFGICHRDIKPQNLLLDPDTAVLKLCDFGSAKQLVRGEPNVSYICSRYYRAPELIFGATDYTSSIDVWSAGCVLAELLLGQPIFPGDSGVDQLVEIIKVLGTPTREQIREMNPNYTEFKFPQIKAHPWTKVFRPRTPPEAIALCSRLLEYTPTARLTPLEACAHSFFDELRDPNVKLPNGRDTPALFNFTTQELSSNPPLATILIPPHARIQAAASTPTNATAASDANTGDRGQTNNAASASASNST
# Summary of the method: as §1
# NEK3 = NEK3 (Homo sapiens, UniProt P51956)
# NEK3, sequence (P51956 whole entry): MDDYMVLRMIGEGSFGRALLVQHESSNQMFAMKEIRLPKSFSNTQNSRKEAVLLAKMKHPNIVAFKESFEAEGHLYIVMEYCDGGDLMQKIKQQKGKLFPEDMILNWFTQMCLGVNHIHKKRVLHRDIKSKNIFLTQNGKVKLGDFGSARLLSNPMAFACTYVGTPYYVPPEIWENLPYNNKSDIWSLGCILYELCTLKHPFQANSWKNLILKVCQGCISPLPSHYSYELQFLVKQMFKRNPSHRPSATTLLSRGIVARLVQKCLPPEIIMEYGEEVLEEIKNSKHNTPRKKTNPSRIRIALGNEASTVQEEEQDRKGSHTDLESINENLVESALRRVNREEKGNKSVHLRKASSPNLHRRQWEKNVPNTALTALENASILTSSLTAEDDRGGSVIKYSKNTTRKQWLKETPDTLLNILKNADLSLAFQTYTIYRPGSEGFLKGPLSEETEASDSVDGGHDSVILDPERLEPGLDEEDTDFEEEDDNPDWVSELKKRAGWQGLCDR
# Summary of the method: as §1
# AMPK-alpha1 = molecular target: T8, AMPK-alpha1 (Homo sapiens, UniProt Q13131)
# T8 construct: gene PRKAA1
# Summary of the method: as §1
# CSNK1A1L = CSNK1A1L (Homo sapiens, UniProt Q8N752)
# Summary of the method: as §1
# MKNK1 = MKNK1 (Homo sapiens, UniProt Q9BUB5)
# Summary of the method: as §1
# BMPR1A = BMPR1A (Homo sapiens, UniProt P36894)
# Summary of the method: as §1
# FLT3(ITD) = FLT3(ITD) (Homo sapiens, UniProt P36888, ITD)
# Summary of the method: as §1
# CLK4 = CLK4 (Homo sapiens, UniProt Q9HAZ1)
# Summary of the method: as §1
# MEK4 = molecular target: T9, MEK4 (Homo sapiens, UniProt P45985)
# T9 construct: gene MAP2K4
# T9 sequence (P45985 whole entry): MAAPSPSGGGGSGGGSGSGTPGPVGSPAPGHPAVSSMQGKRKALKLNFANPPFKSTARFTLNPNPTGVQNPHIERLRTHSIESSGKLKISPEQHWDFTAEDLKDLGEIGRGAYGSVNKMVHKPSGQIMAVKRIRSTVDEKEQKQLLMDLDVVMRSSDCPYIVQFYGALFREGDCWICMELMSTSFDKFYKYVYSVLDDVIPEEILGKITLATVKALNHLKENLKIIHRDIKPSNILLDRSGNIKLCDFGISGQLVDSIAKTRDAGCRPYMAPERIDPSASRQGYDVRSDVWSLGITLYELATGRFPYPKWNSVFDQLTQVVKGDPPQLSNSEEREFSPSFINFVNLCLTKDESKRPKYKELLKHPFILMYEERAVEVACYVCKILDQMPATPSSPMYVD
# Summary of the method: as §1
# NEK7 = NEK7 (Homo sapiens, UniProt Q8TDX7)
# Summary of the method: as §1
# FLT3(D835H) = FLT3(D835H) (Homo sapiens, UniProt P36888, D835H)
# Summary of the method: as §1
# p38-gamma = molecular target: T10, p38-gamma (Homo sapiens, UniProt P53778)
# T10 construct: gene MAPK12
# T10 sequence (P53778 whole entry): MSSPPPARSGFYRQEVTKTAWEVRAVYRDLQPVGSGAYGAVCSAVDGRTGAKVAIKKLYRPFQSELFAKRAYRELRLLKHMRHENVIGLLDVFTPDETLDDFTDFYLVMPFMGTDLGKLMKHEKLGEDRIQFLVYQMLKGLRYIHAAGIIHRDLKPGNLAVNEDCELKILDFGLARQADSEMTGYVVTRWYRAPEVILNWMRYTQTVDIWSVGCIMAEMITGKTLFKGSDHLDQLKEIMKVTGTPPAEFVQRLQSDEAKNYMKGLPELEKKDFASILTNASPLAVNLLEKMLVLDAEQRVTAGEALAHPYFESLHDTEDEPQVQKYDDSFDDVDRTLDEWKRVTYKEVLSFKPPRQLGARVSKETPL
# Summary of the method: as §1
# MST4 = molecular target: T11, MST4 (Homo sapiens, UniProt Q9P289)
# T11 construct: gene STK26
# Summary of the method: as §1
compound,measurement,setting,value
C=CC(=O)Nc1cc(-n2c(=O)ccc3cnc4ccc(-n5cccn5)cc4c32)ccc1C [CHMFL-BTK-11],remaining binding at 1 µM,EPHA8,92%
same,remaining binding at 1 µM,MYLK4,100%
same,remaining binding at 1 µM,ALK,100%
same,remaining binding at 1 µM,ARK5,100%
same,remaining binding at 1 µM,CDK4-cyclinD1,97%
same,remaining binding at 1 µM,AMPK-alpha2,86%
same,remaining binding at 1 µM,PYK2,100%
same,remaining binding at 1 µM,MERTK,100%
same,remaining binding at 1 µM,ACVR1,100%
same,remaining binding at 1 µM,OSR1,96%
same,remaining binding at 1 µM,[1],100%
same,remaining binding at 1 µM,MRCKA,100%
same,remaining binding at 1 µM,GSK3B,100%
same,remaining binding at 1 µM,NEK3,87%
same,remaining binding at 1 µM,AMPK-alpha1,100%
same,remaining binding at 1 µM,CSNK1A1L,100%
same,remaining binding at 1 µM,MKNK1,92%
same,remaining binding at 1 µM,BMPR1A,100%
same,remaining binding at 1 µM,FLT3(ITD),89%
same,remaining binding at 1 µM,CLK4,90%
same,remaining binding at 1 µM,MEK4,100%
same,remaining binding at 1 µM,NEK7,100%
same,remaining binding at 1 µM,FLT3(D835H),100%
same,remaining binding at 1 µM,p38-gamma,79%
same,remaining binding at 1 µM,MST4,96%
